From patent publication US10618901B2 (GlaxoSmithKline Intellectual Property Development Limited, priority 2014, dated 2020)

What follows are compounds tested against T1, LRRK2 Ser935 phosphorylation in SH-SY5Y cells over-expressing recombinant full length LRRK2 (Homo sapiens, UniProt Q5S007) (assay: Recombinant cellular LRRK2 AlphaScreen assay). Conditions: LRRK2 Ser935 phosphorylation, 60 minutes, read-out: recombinant cellcular LRRK2 alphaScreen assay (pIC50) (converted).
T1 construct: A BacMam virus expressing full length recombinant LRRK2 was purchased from Invitrogen; host or cells: SH-SY5Y (BacMam transduction)
T1 sequence (Q5S007 whole entry): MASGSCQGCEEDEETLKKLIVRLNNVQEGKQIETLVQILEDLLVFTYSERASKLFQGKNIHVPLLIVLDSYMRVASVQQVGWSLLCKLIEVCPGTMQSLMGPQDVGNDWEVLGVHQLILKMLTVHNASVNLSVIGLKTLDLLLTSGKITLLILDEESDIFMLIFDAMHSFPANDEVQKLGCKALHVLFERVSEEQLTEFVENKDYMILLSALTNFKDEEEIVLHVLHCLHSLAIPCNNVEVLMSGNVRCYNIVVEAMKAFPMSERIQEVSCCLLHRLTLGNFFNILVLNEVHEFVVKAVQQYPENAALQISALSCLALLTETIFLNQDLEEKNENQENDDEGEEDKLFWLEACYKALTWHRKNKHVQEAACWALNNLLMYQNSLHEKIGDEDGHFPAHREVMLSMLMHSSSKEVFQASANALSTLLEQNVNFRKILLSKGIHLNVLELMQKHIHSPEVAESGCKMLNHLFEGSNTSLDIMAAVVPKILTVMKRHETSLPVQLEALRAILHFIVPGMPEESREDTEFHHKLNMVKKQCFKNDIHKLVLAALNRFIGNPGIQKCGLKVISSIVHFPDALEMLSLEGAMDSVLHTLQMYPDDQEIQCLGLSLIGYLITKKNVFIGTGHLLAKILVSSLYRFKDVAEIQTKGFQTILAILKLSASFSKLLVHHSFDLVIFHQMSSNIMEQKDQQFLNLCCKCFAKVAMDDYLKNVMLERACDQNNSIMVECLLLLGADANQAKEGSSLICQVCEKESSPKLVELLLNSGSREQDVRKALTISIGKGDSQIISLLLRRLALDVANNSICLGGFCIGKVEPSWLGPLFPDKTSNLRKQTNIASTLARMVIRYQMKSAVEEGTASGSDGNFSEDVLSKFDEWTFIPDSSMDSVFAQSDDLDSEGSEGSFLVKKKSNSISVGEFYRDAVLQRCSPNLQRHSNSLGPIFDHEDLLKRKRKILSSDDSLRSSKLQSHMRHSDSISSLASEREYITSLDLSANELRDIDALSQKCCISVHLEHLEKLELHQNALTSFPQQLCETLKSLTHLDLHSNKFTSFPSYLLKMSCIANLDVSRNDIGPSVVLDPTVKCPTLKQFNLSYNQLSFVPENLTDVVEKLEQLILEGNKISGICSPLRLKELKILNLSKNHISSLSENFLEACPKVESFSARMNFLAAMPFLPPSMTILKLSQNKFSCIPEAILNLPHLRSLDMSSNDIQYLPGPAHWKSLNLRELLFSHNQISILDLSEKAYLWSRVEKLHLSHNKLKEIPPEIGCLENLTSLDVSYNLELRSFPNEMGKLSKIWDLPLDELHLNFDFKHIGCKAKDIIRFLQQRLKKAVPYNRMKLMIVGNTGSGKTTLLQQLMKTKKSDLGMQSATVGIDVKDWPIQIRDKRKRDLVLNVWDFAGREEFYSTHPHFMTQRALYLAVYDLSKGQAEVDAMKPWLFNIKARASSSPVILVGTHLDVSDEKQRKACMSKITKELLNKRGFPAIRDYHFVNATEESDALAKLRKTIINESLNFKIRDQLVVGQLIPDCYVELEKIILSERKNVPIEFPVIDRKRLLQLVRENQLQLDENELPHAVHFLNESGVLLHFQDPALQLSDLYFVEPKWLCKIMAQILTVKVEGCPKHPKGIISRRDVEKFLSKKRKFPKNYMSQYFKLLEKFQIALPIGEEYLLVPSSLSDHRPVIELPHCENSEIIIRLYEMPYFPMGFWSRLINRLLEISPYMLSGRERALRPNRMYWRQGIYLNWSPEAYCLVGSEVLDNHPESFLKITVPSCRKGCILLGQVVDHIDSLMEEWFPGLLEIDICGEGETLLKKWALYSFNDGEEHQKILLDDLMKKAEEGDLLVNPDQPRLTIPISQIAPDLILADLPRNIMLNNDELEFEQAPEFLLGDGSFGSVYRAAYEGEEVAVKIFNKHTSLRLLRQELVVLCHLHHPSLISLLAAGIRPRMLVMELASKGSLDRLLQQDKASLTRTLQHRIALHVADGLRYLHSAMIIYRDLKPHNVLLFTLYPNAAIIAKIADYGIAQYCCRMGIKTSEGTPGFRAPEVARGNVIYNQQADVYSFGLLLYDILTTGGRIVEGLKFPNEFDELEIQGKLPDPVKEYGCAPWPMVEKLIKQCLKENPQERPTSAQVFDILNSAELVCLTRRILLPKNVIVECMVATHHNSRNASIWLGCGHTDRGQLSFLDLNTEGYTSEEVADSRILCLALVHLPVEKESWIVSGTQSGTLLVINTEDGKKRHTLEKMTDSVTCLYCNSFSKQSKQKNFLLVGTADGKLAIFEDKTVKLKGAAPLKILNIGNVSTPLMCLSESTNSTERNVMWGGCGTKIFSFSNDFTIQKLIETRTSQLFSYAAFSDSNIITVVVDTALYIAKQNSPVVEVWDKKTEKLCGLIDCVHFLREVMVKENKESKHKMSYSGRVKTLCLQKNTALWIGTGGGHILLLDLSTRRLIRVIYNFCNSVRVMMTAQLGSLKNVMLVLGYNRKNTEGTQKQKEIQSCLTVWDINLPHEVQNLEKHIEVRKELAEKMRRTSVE
Type: cell-based
Source text: Recombinant Cellular LRRK2 AlphaScreen Assay
To determine the activity of compounds against LRRK2 kinase activity in cells, the observed LRRK2 kinase-dependent modulation of LRRK2 Ser 935 phosphorylation (Dzamko et al., 2010, Biochem. J. 430: 405-413) was utilized to develop a quantitative 384 well plate-based immunoassay of LRRK2 Ser935 phosphorylation in the human neuroblastoma cell line SH-SY5Y, engineered to over-express recombinant full length LRRK2 protein.
A BacMam virus expressing full length recombinant LRRK2 was purchased from Invitrogen and amplified by inoculation of SF-9 cells at MOI 0.3 for 4-5 days in Sf-900 III SFM medium supplemented with 3% fetal bovine serum. Infected cell cultures were then centrifuged at 2000 g for 20 minutes, viral supernatant titer determined by anti-gp64 plaque assay and stored at 4° C.
Affinity-purified anti-phospho LRRK2 Ser935 sheep polyclonal antibody (Dzamko et al., 2010, Biochem. J. 430: 405-413) was biotinylated by standard methods (PerkinElmer). Anti-LRRK2 rabbit polyclonal antibody was purchased from Novus Biologicals. AlphaScreen Protein A IgG Kit (including acceptor and donor beads) was purchased from Perkin Elmer.
SH-SY5Y cells were grown in DMEM/F12 medium with 10% dialysed fetal bovine serum and harvested by treatment with 0.5% trypsin-EDTA for 5 minutes at 37° C. followed by centrifugation at 1000 rpm for 4 minutes. The cell pellet was resuspended in Opti-MEM reduced serum media (Invitrogen) at 200,000 cells/ml and mixed with the BacMam LRRK2 virus at M01=50. 50 μl cell solutions were then dispensed to each well of a 384-well plate and incubated at 37° C., 5% CO2 for 24 hours.
Serial dilutions of test compounds were prepared in Opti-MEM reduced serum media (Invitrogen) and 5.6 ul transferred from compound plate to cell assay plate to achieve a top final assay concentration of 10 uM. DMSO was used in certain wells as controls. Cells were incubated at 37° C., 5% CO2 for 60 minutes. The medium was then removed and cells lysed by addition of 20 ul cell lysis buffer (Cell Signaling Technology) and incubation at 4° C. for 20 minutes. 10 ul of antibody/acceptor bead mix [(1/1000 biotinylated-pS935 LRRK2 antibody, 1/1000 total-LRRK2 antibody, 1/100 Acceptor beads in AlphaScreen detection buffer (25 mM Hepes (pH 7.4), 0.5% Triton X-100, 1 mg/ml Dextran 500 and 0.1% BSA)] was then added to each well and plates incubated for 2 hours at ambient temperature in the dark. 10 μl of donor beads solution (1/33.3 donor beads in AlphaScreen detection buffer) was then added to each well. Following incubation for a further 2 hours at ambient temperature in the dark, plates were read on an EnVision™ plate reader at emission 520-620 nm with excitation 680 nm. Dose response curve data was based on sigmoidal dose-response model.

| IC50 | Structure (SMILES) |
| --- | --- |
| 31.6 nM | CCOc1nc(Nc2cnn([C@H]3C[C@H](F)CN(C4COC4)C3)c2Cl)nc2[nH]ccc12 [Example E150, N-(5-chloro-1-((3S,5S)-5-fluoro-1-(oxetan-3-yl)piperidin-3-yl)-1H-pyrazol-4-yl)-4-ethoxy-7H-pyrrolo[2,3-d]pyrimidin-2-amine] |
| 2.51 nM | CCOc1nc(Nc2cnn(C3CNCCC3(F)F)c2C)nc2[nH]ccc12 (single isomer, unassigned) [Example E117, N-(1-(4,4-difluoropiperidin-3-yl)-5-methyl-1H-pyrazol-4-yl)-4-ethoxy-7H-pyrrolo[2,3-d]pyrimidin-2-amine] |

Same assay, conditions: read-out: pIC50 in the recombinant cellular LRRK2 alphaScreen assay (converted)

| IC50 | Structure (SMILES) |
| --- | --- |
| ≤ 100 nM | CCOc1nc(Nc2cnn(CCOC)c2C)nc2[nH]cc(C#N)c12 [Example E47, 4-ethoxy-2-((1-(2-methoxyethyl)-5-methyl-1H-pyrazol-4-yl)-amino)-7H-pyrrolo-[2,3-d]-pyrimidine-5-carbonitrile] |
| ≤ 100 nM | CCOc1nc(Nc2cnn(CCN3CCOC[C@@H]3C)c2C)nc2[nH]ccc12 [Example E82, (S)-4-ethoxy-N-(5-methyl-1-(2-(3-methylmorpholino)ethyl)-1H-pyrazol-4-yl)-7H-pyrrolo [2,3-d]pyrimidin-2-amine] |
| ≤ 100 nM | CCOc1nc(Nc2cnn(C)c2Cl)nc2[nH]ccc12 [Example E4, N-(5-chloro-1-methyl-1H-pyrazol-4-yl)-4-ethoxy-7H-pyrrolo-[2,3-d]-pyrimidin-2-amine] |
| ≤ 100 nM | CCOc1nc(Nc2cnn(C3CCCC3O)c2C)nc2[nH]ccc12 (racemic) [Example E39, (±)-2-(4-((4-ethoxy-7H-pyrrolo[2,3-d]pyrimidin-2-yl)amino)-5-methyl-1H-pyrazol-1-yl)cyclopentanol] |
| ≤ 100 nM | CCOc1nc(Nc2cn(CCF)nc2C)nc2[nH]ccc12 [Example E27, 4-ethoxy-N-(1-(2-fluoroethyl)-3-methyl-1H-pyrazol-4-yl)-7H-pyrrolo-[2,3-d]-pyrimidin-2-amine] |
| ≤ 100 nM | CCOc1nc(Nc2cnn(C3CCC(N4CCOCC4)C3)c2Cl)nc2[nH]ccc12 (single isomer, unassigned) [Example E110, (trans)-N-(5-chloro-1-(3-morpholinocyclopentyl)-1H-pyrazol-4-yl)-4-ethoxy-7H-pyrrolo [2,3-d]pyrimidin-2-amine] |
| ≤ 100 nM | CCOc1nc(Nc2cnn(CC(C)(C)N3CCOCC3)c2C)nc2[nH]ccc12 [Example E88, 4-ethoxy-N-(5-methyl-1-(2-methyl-2-morpholinopropyl)-1H-pyrazol-4-yl)-7H-pyrrolo[2,3-d]pyrimidin-2-amine] |
| ≤ 100 nM | CCOc1nc(Nc2cn(C)nc2C)nc2[nH]ccc12 [Example E1, N-(1,3-dimethyl-1H-pyrazol-4-yl)-4-ethoxy-7H-pyrrolo[2,3-d]pyrimidin-2-amine] |
| ≤ 100 nM | CCOc1nc(Nc2cnn(C3COC3)c2Cl)nc2[nH]ccc12 [Example E35, N-(5-chloro-1-(oxetan-3-yl)-1H-pyrazol-4-yl)-4-ethoxy-7H-pyrrolo-[2,3-d]pyrimidin-2-amine] |
| ≤ 100 nM | CCOc1nc(Nc2cnn([C@H]3C[C@H](F)CN(C4COC4)C3)c2Cl)nc2[nH]ccc12 [Example E150, N-(5-chloro-1-((3S,5S)-5-fluoro-1-(oxetan-3-yl)piperidin-3-yl)-1H-pyrazol-4-yl)-4-ethoxy-7H-pyrrolo[2,3-d]pyrimidin-2-amine] |
| ≤ 100 nM | CCOc1nc(Nc2cnn(C3CCN(C4COC4)CC3F)c2Cl)nc2[nH]ccc12 (single isomer, unassigned) [Example E106, cis-N-(5-chloro-1-(3-fluoro-1-(oxetan-3-yl)piperidin-4-yl)-1H-pyrazol-4-yl)-4-ethoxy-7H-pyrrolo[2,3-d]pyrimidin-2-amine] |
| ≤ 100 nM | CCOc1nc(Nc2cnn(C3CCN(C4COC4)C3)c2C)nc2[nH]ccc12 (stereo not drawn) [Example E66, 4-Ethoxy-N-(5-methyl-1-(1-(oxetan-3-yl)pyrrolidin-3-yl)-1H-pyrazol-4-yl)-7H-pyrrolo[2,3-d]pyrimidin-2-amine] |
| ≤ 100 nM | CCOc1nc(Nc2cnn([C@H]3CCN(C4COC4)C[C@@H]3F)c2C)nc2[nH]ccc12 [Example E97, 4-ethoxy-N-(1-((3S,4S)-3-fluoro-1-(oxetan-3-yl)piperidin-4-yl)-5-methyl-1H-pyrazol-4-yl)-7H-pyrrolo[2,3-d]pyrimidin-2-amine] |
| ≤ 100 nM | CCOc1nc(Nc2cnn([C@@H]3CCN[C@@H](C(F)F)C3)c2C)nc2[nH]ccc12 [Example E94, N-(1-((2R,4R)-2-(difluoromethyl)piperidin-4-yl)-5-methyl-1H-pyrazol-4-yl)-4-ethoxy-7H-pyrrolo[2,3-d]pyrimidin-2-amine] |
| ≤ 100 nM | CCOc1nc(Nc2cnn(CCN3CC4CC4C3)c2C)nc2[nH]ccc12 (stereo not drawn) [Example E10, N-(1-(2-(3-aza-bicyclo-[3.1.0]hexan-3-yl)ethyl)-5-methyl-1H-pyrazol-4-yl)-4-ethoxy-7H-pyrrolo-[2,3-d]pyrimidin-2-amine] |
| ≤ 100 nM | CCOc1nc(Nc2cnn([C@@H]3CCN(CC(F)F)C3)c2C)nc2[nH]ccc12 [Example E85, (R)—N-(1-(1-(2,2-difluoroethyl)pyrrolidin-3-yl)-5-methyl-1H-pyrazol-4-yl)-4-ethoxy-7H-pyrrolo[2,3-d]pyrimidin-2-amine] |
| ≤ 100 nM | CCOc1nc(Nc2cnn(C3CNCCC3(F)F)c2C)nc2[nH]ccc12 (single isomer, unassigned) [Example E117, N-(1-(4,4-difluoropiperidin-3-yl)-5-methyl-1H-pyrazol-4-yl)-4-ethoxy-7H-pyrrolo[2,3-d]pyrimidin-2-amine] |
| ≤ 100 nM | CCOc1nc(Nc2cnn(CCOC)c2C)nc2[nH]ccc12 [Example E9, 4-ethoxy-N-(1-(2-methoxyethyl)-5-methyl-1H-pyrazol-4-yl)-7H-pyrrolo-[2,3-d]pyrimidin-2-amine] |
| ≤ 100 nM | CCOc1nc(Nc2cnn(CC(C)(C)O)c2Cl)nc2[nH]ccc12 [Example E15, 1-(5-chloro-4-((4-ethoxy-7H-pyrrolo-[2,3-d]pyrimidin-2-yl)amino)-1H-pyrazol-1-yl)-2-methylpropan-2-ol] |
| ≤ 100 nM | CCOc1nc(Nc2cnn([C@H]3CCN(C)C3)c2C)nc2[nH]cc(C#N)c12 [Example E49, (S)-4-ethoxy-2-((5-methyl-1-(1-methyl-pyrrolidin-3-yl)-1H-pyrazol-4-yl)-amino)-7H-pyrrolo-[2,3-d]pyrimidine-5-carbonitrile] |
| ≤ 100 nM | CCOc1nc(Nc2cnn(CC(C)(C)C#N)c2C)nc2[nH]ccc12 [Example E62, 3-(4-((4-ethoxy-7H-pyrrolo-[2,3-d]pyrimidin-2-yl)amino)-5-methyl-1H-pyrazol-1-yl)-2,2-dimethylpropanenitrile] |
| ≤ 100 nM | CCOc1nc(Nc2cnn(C3(C)CC(N4CCOCC4)C3)c2C)nc2[nH]ccc12 (stereo not drawn) [Example E137, 4-ethoxy-N-(5-methyl-1-(1-methyl-3-morpholinocyclobutyl)-1H-pyrazol-4-yl)-7H-pyrrolo[2,3-d]pyrimidin-2-amine] |
| ≤ 100 nM | CCOc1nc(Nc2cnn(C3CC(C)(O)C3)c2C)nc2[nH]ccc12 (stereo not drawn) [Example E93, 3-(4-((4-ethoxy-7H-pyrrolo[2,3-d]pyrimidin-2-yl)amino)-5-methyl-1H-pyrazol-1-yl)-1-methylcyclobutanol] |
| ≤ 100 nM | CCOc1nc(Nc2cnn(CC3COC3)c2Cl)nc2[nH]ccc12 [Example E28, N-(5-chloro-1-(oxetan-3-yl-methyl)-1H-pyrazol-4-yl)-4-ethoxy-7H-pyrrolo-[2,3-d]pyrimidin-2-amine] |
| ≤ 100 nM | CCOc1nc(Nc2cnn(C3CCOCC3F)c2C)nc2[nH]ccc12 (single isomer, unassigned) [Example E128, (cis)-4-ethoxy-N-(1-(3-fluorotetrahydro-2H-pyran-4-yl)-5-methyl-1H-pyrazol-4-yl)-7H-pyrrolo[2,3-d]pyrimidin-2-amine] |
| ≤ 100 nM | CCOc1nc(Nc2cnn(CCN3CCO[C@H](C)C3)c2C)nc2[nH]ccc12 [Example E83, (R)-4-ethoxy-N-(5-methyl-1-(2-(2-methylmorpholino)ethyl)-1H-pyrazol-4-yl)-7H-pyrrolo [2,3-d]pyrimidin-2-amine] |
| ≤ 100 nM | CCOc1nc(Nc2cnn([C@@H]3CCN(C4COC4)C[C@H]3F)c2C)nc2[nH]ccc12 [Example E98, 4-ethoxy-N-(1-((3R,4R)-3-fluoro-1-(oxetan-3-yl)piperidin-4-yl)-5-methyl-1H-pyrazol-4-yl)-7H-pyrrolo[2,3-d]pyrimidin-2-amine] |
| ≤ 100 nM | CCOc1nc(Nc2cnn(C3CNCCC3(F)F)c2Cl)nc2[nH]ccc12 (single isomer, unassigned) [Example E125, N-(5-chloro-1-(4,4-difluoropiperidin-3-yl)-1H-pyrazol-4-yl)-4-ethoxy-7H-pyrrolo [2,3-d] pyrimidin-2-amine] |
